Measurements as given in patent publication US20090264379A1, “Stable aqueous solution of a polyene fungicide” (DSM IP ASSETS B.V., priority 2003, published 2009).

What was measured:
[1] = Rest activity (stability) of completely dissolved natamycin in aqueous SDS solution over time, HPLC; assay type: physicochemical; settings: 1000 ppm natamycin added, 1% SDS
Experimental: This method was used to analyze the amount of
active natamycin in a water-based mixture of several components. The method was HPLC based using the International Dairy Federation (Provisional ADF Standard 140, 1987) with a Lichrosorb RP 8 column. Detection was by UV at 303 nm with a range of 0.1-4 mg/L with an injection volume of 20 μl. Sample preparation was carried out by weighing 2 gram prepared formulation with an accuracy of 1 mgram in a measuring flask. 4 ml demineralized water (demiwater) was added and the mixture was stirred for 15 minutes to get a homogeneous suspension. Subsequently 80 ml ethanol was added and the mixture was stirred for 10 minutes. After ultrasonic treatment the solution was filled up to 100 ml with de-minaralized water and then diluted and/or filtered (0.2 μm) before injecting. The amount of active natamycin was calculated as ppm against a series of standards of known natamycin concentrations.
The mixtures were made by adding 2 gram Delvocid (Natamycin) together with 50 gram 20% SDS solution and eventually additives to a final weight of 1000 gram with demineralised (=demi) water.
This crude mixture was mixed for 5 minutes to obtain a homogeneous mixture and accordingly adjusted to pH 4-6 with ammonia.
The obtained formulations with an added amount of active natamycin of 1000 ppm were stored at 18° C. in a closed pot in the dark.
The prepared mixtures were measured over time for the amount of active natamycin using the analytical method as described hereinabove.
The mixture as described in Example 1 was adjusted to pH=4.0 or pH=6.0 and the natamycin activity was measured over time.
The mixture as described in Example 1 is combined with 1000 ppm di-sodium-EDTA, adjusted to pH 6.0 and the natamycin activity was measured over time.

[2] = Visual solubility of polyene fungicides in water and water + SDS; assay type: physicochemical; settings: soluble if mixture is clear
Experimental: Mixtures are made with several polyene fungicides in several concentrations The used polyene fungicides are nystatin, amphotericin and natamycin. The solubility rate is measured visually of the polyene fungicides in demineralized water as such or according to example 1 in combination with SDS to a final SDS concentration of 1% (w/w). It is soluble if a mixture is clear after one minute stirring at room temperature.

Rest activity of completely dissolved natamycin over time ([1]; pH = 4.0, 3 weeks, stored at 18° C. in the dark) [ppm] | Rest activity of completely dissolved natamycin over time ([1]; pH = 4.0, 9 weeks, stored at 18° C. in the dark) [ppm] | Rest activity of completely dissolved natamycin over time ([1]; pH = 4.0, 1 day, stored at 18° C. in the dark) [ppm] | Rest activity of completely dissolved natamycin over time ([1]; pH = 6.0 + Na2EDTA (1000 ppm di-sodium-EDTA), 3 weeks, 18° C. dark) [ppm] | Rest activity of completely dissolved natamycin over time ([1]; pH = 6.0 + Na2EDTA (1000 ppm di-sodium-EDTA), 9 weeks, 18° C. dark) [ppm] | Rest activity of completely dissolved natamycin over time ([1]; pH = 6.0 + Na2EDTA (1000 ppm di-sodium-EDTA), 1 day, 18° C. dark) [ppm] | Rest activity of completely dissolved natamycin over time ([1]; pH = 6.0, 3 weeks, stored at 18° C. in the dark) [ppm] | Rest activity of completely dissolved natamycin over time ([1]; pH = 6.0, 9 weeks, stored at 18° C. in the dark) [ppm] | Rest activity of completely dissolved natamycin over time ([1]; pH = 6.0, 1 day, stored at 18° C. in the dark) [ppm] | Compound | Solublized after 1 minute stirring at room temperature ([2]; 250 ppm polyene fungicide in final mixture, solvent 1% (w/w) SDS) | Solublized after 1 minute stirring at room temperature ([2]; 250 ppm polyene fungicide in final mixture, solvent Demi-Water) | Solublized after 1 minute stirring at room temperature ([2]; 500 ppm polyene fungicide in final mixture, solvent 1% (w/w) SDS) | Solublized after 1 minute stirring at room temperature ([2]; 1000 ppm polyene fungicide in final mixture, solvent 1% (w/w) SDS)
<0.1 | <0.1 | 672 | 805 | 560 | 1000 | 444 | 57 | 988 | C[C@@H]1C/C=C/C=C/C=C/C=C/[C@H](O[C@@H]2O[C@H](C)[C@@H](O)[C@H](N)[C@@H]2O)C[C@@H]2O[C@](O)(C[C@@H](O)C[C@H]3O[C@@H]3/C=C/C(=O)O1)C[C@H](O)[C@H]2C(=O)O [Natamycin, natamycin] |  |  |  | 
 |  |  |  |  |  |  |  |  | C[C@@H]1[C@H](O)[C@@H](C)/C=C/C=C/CC/C=C/C=C/C=C/C=C/C(O[C@H]2O[C@H](C)[C@@H](O)[C@H](N)[C@@H]2O)CC2O[C@](O)(CC(O)C(O)CCC(O)CC(O)CC(O)CC(=O)O[C@H]1C)CC(O)C2C(=O)O (stereo partly shown) [Nystatin] | Yes | No | Almost | No
